# Data: PubChem BioAssay AID1963831 (Molecular Pharmacology Branch, DTP, NCI, 2024)
# pIC50: −log10 of the molar value.
# System: 889142-216-R-J1-PDC complex spheroid viability
# Assay: Anticancer human tumor 889142-216-R-J1-PDC patient-derived bladder carcinoma cell line growth inhibition [POLQ]
# Conditions: for pIC50: curve of first compound; for viability, T/C: stronger effect = lower value
# Method: Multicellular complex tumor spheroid response to Polymerase (POL) inhibitors (novobiocin, ART-558, RP6685) in combination with a variety of drugs and investigational agents in selected tumor cell lines
# The POL inhibitors (novobiocin, ART-558, and RP6685) were evaluated both individually and in combination with standard of care and investigational anticancer small molecules within a complex spheroid model of solid tumors. . Complex spheroids include a stromal component modeled by human endothelial cells (HUVEC) and fibroblasts modeled by human mesenchymal stem cells (MSCs). The concentration ranges selected for each drug and investigational agent were based upon clinically achievable concentrations if the clinical Cmax of the agent was known.
# Compounds. The drugs and investigational agents: novobiocin (NSC847541), ART-558 (NSC835418), RP-6685 (NSC848927), peposertib (NSC802822), ceralasertib (NSC780249), elimusertib (NSC800525), camonsertib (NSC841442), AZD-1390 (NSC803789), olaparib (NSC753686), talazoparib (NSC767125), rucaparib (NSC756644), sotorasib (NSC818433), MRTX-1133 (NSC836407), SN-38 (NSC673596), topotecan (NSC609699), epotoside (NSC141540), doxorubicin (NSC123127), gemcitabine (NSC613327), 5-fluorouracil (NSC19893), paclitaxel (NSC125973), vemurafenib (NSC761431), MSA-2 (NSC828583), SN-011 (NSC837082), adavosertib (NSC754352), prexasertib (NSC758257), carboplatin (NSC241240) and oxaliplatin (NSC266046), were obtained from the National Cancer Institute (NCI) Developmental Therapeutics Program Chemical Repository (21). The FDA-approved anticancer drug set is available from the Developmental Therapeutics Program at https://dtp.cancer.gov/organization/dscb/obtaining/. […] The stock solutions were prepared in dimethyl sulfoxide (DMSO, Sigma-Aldrich, St. Louis, MO, cat. D2650), except for the platinum compounds which were prepared in saline (Quality Biological, Gaithersburg, MD, cat. 114-055-101), at 800-fold the tested concentration and stored at -70 degrees C prior to their use. All drugs and investigational agents were tested over a range starting from a high concentration at or near the clinical Cmax and decreasing in half-log increments. If the clinical Cmax for an agent had not been determined, the highest concentration tested was 10 microM, except for SN-38, which was tested at a high concentration of 1 microM.
# Cell Culture. All cells were maintained in an incubator at 37 degrees C and 5% CO2 with 95% humidity. The PDC lines were cultured according to standard operating procedures established by the NCI PDMR (https://pdmr.cancer.gov). Table 3 of the manuscript, lists the cell lines along with the number of the three cell types plated to form the mct-spheroids and media for tumor cell growth. After thawing, all PDC lines, except 997537-175-T-J1-PDC and 415267-285-R-J2-PDC, were cultured in Matrigel-coated flasks prepared with a working solution of 1X Ham's F-12 nutrient mix, without supplementation (Thermo Fisher Scientific, cat. 11765054), 100 U/mL penicillin-streptomycin (Thermo Fisher Scientific, cat. 15140122), and 2.5% Matrigel (Corning Inc., Corning, NY, cat. 354248) for the first three passages. The two PDC lines 997537-175-T-J1-PDC and 415267-285-R-J2-PDC were cultured on uncoated flasks. The 857933-349-R-J2-PDC line was cultured in 6C/Colon 1B media containing advanced DMEM/F-12 (Thermo Fisher Scientific, cat. 12634028), 10 mM HEPES (Thermo Fisher Scientific, cat. 15630080), 1X GlutaMAX supplement (Thermo Fisher Scientific, cat. 35050061), 0.1 mg/mL primocin (InvivoGen, San Diego, CA, cat. ant-pm-2), 10% defined fetal bovine serum, heat inactivated (HyClone Laboratories Inc., Logan, UT, cat. SH30070.03HI), 50% L-WRN conditioned media (ATCC, cat. CRL-3276), 1.25 mM N-Acetyl-L-cysteine (Sigma-Aldrich, cat. A9165), 10 mM nicotinamide (Sigma-Aldrich, cat. N0636), 1X B-27 supplement (Thermo Fisher Scientific, cat. 17504044), 1X N-2 supplement (Thermo Fisher Scientific, cat. […]
# [1] = second compound 0.0316 µM, first compound 0.0316 µM
# [2] = second compound 0.0316 µM, first compound 0.1 µM
# [3] = second compound 0.0316 µM, first compound 0.316 µM
# [4] = second compound 0.0316 µM, first compound 1 µM
# [5] = second compound 0.0316 µM, first compound 3.16 µM
# [6] = second compound 0.0316 µM, first compound 10 µM
# [7] = second compound 0.1 µM, first compound 0.0316 µM
# [8] = second compound 0.1 µM, first compound 0.1 µM
# [9] = second compound 0.1 µM, first compound 0.316 µM
# [10] = second compound 0.1 µM, first compound 1 µM
# [11] = second compound 0.1 µM, first compound 3.16 µM
# [12] = second compound 0.1 µM, first compound 10 µM
# [13] = second compound 0.316 µM, first compound 0.0316 µM
# [14] = second compound 0.316 µM, first compound 0.1 µM
# [15] = second compound 0.316 µM, first compound 0.316 µM
# [16] = second compound 0.316 µM, first compound 1 µM
# [17] = second compound 0.316 µM, first compound 3.16 µM
# [18] = second compound 0.316 µM, first compound 10 µM
# [19] = second compound 1 µM, first compound 0.0316 µM
# [20] = second compound 1 µM, first compound 0.1 µM
# [21] = second compound 1 µM, first compound 0.316 µM
# [22] = second compound 1 µM, first compound 1 µM
# [23] = second compound 1 µM, first compound 3.16 µM
# [24] = second compound 1 µM, first compound 10 µM
# [25] = second compound 3.16 µM, first compound 0.0316 µM
# [26] = second compound 3.16 µM, first compound 0.1 µM
# [27] = second compound 3.16 µM, first compound 0.316 µM
# [28] = second compound 3.16 µM, first compound 1 µM
# [29] = second compound 3.16 µM, first compound 3.16 µM
# [30] = second compound 3.16 µM, first compound 10 µM
# [31] = second compound 10 µM, first compound 0.0316 µM
# [32] = second compound 10 µM, first compound 0.1 µM
# [33] = second compound 10 µM, first compound 0.316 µM
# [34] = second compound 10 µM, first compound 1 µM
# [35] = second compound 10 µM, first compound 3.16 µM
# [36] = second compound 10 µM, first compound 10 µM
# 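Note: spheroids exposed to compounds for seven days.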
# 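Throughout, for viability, T/C: 100% = DMSO vehicle control viability.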
smiles,measurement,setting,value
CC1COCCN1c1cc(C2(S(C)(=N)=O)CC2)nc(-c2ccnc3[nH]ccc23)n1 (centres undefined) + Cc1cccc(N(C)C(=O)C2C(O)CCN2c2nc(C)cc(C(F)(F)F)c2C#N)c1,pIC50,second compound 0.0316 µM,5.15
same,pIC50,second compound 0.1 µM,5.00
same,pIC50,second compound 0.316 µM,5.52
same,pIC50,second compound 1 µM,5.64
same,pIC50,second compound 3.16 µM,5.85
same,pIC50,second compound 10 µM,6.02
same,"viability, T/C",[1],109%
same,"viability, T/C",[2],97.9%
same,"viability, T/C",[3],64.5%
same,"viability, T/C",[4],76%
same,"viability, T/C",[5],49.4%
same,"viability, T/C",[6],48.4%
same,"viability, T/C",[7],92.9%
same,"viability, T/C",[8],128%
same,"viability, T/C",[9],82%
same,"viability, T/C",[10],58.1%
same,"viability, T/C",[11],49.5%
same,"viability, T/C",[12],45.8%
same,"viability, T/C",[13],128%
same,"viability, T/C",[14],97%
same,"viability, T/C",[15],85%
same,"viability, T/C",[16],65.4%
same,"viability, T/C",[17],43.7%
same,"viability, T/C",[18],41.8%
same,"viability, T/C",[19],111%
same,"viability, T/C",[20],106%
same,"viability, T/C",[21],70.7%
same,"viability, T/C",[22],60.1%
same,"viability, T/C",[23],50%
same,"viability, T/C",[24],41.5%
same,"viability, T/C",[25],92.4%
same,"viability, T/C",[26],94.4%
same,"viability, T/C",[27],72.3%
same,"viability, T/C",[28],53.9%
same,"viability, T/C",[29],44.5%
same,"viability, T/C",[30],41.5%
same,"viability, T/C",[31],85.6%
same,"viability, T/C",[32],94.6%
same,"viability, T/C",[33],89.4%
same,"viability, T/C",[34],48.8%
same,"viability, T/C",[35],50.1%
same,"viability, T/C",[36],38.8%
CCc1cc2c(N3CCc4c(cc(Cn5ccnc5)cc4-c4cn(C)nc4C(F)(F)F)C3=O)cc(C)nc2c(OC)n1 + Cc1cccc(N(C)C(=O)C2C(O)CCN2c2nc(C)cc(C(F)(F)F)c2C#N)c1,pIC50,second compound 0.0316 µM,< 5.00
same,pIC50,second compound 0.1 µM,< 5.00
same,pIC50,second compound 0.316 µM,< 5.00
same,pIC50,second compound 1 µM,< 5.00
same,pIC50,second compound 3.16 µM,< 5.00
same,pIC50,second compound 10 µM,< 5.00
same,"viability, T/C",[1],109%
same,"viability, T/C",[2],132%
same,"viability, T/C",[3],121%
same,"viability, T/C",[4],108%
same,"viability, T/C",[5],91.3%
same,"viability, T/C",[6],80.8%
same,"viability, T/C",[7],119%
same,"viability, T/C",[8],98.8%
same,"viability, T/C",[9],105%
same,"viability, T/C",[10],114%
same,"viability, T/C",[11],109%
same,"viability, T/C",[12],96.8%
same,"viability, T/C",[13],113%
same,"viability, T/C",[14],111%
same,"viability, T/C",[15],137%
same,"viability, T/C",[16],137%
same,"viability, T/C",[17],130%
same,"viability, T/C",[18],83.9%
same,"viability, T/C",[19],91%
same,"viability, T/C",[20],106%
same,"viability, T/C",[21],143%
same,"viability, T/C",[22],112%
same,"viability, T/C",[23],94.7%
same,"viability, T/C",[24],84.3%
same,"viability, T/C",[25],104%
same,"viability, T/C",[26],121%
same,"viability, T/C",[27],114%
same,"viability, T/C",[28],94.9%
same,"viability, T/C",[29],112%
same,"viability, T/C",[30],69.9%
same,"viability, T/C",[31],89.2%
same,"viability, T/C",[32],88.3%
same,"viability, T/C",[33],109%
same,"viability, T/C",[34],144%
same,"viability, T/C",[35],83.7%
same,"viability, T/C",[36],70.8%
